Assay results as given in patent publication US20200270309A1, “MALEIMIDE GROUP-MODIFIED ANGIOGENESIS INHIBITOR HM-1 AND USE THEREOF” (NANJING ANJI BIOLOGICAL TECHNOLOGY CO., LTD, priority 2017, published 2020).
Peptide text beside a SMILES is read from it. * marks the point of attachment. X65 = O=C1C=CC(=O)N1c1cccc(CCCCCCCCCCCCC(=O)*)c1; X58 = O=C1C=CC(=O)N1c1cccc(CCCCCCCCCCCC(=O)*)c1; X84 = O=C1C=CC(=O)N1c1ccccc1CCCCCCCCCCCCC(=O)*; X63 = O=C1C=CC(=O)N1c1ccccc1CCCCCCC(=O)*

What was measured:
[1] = test system: HUVECs; test: Transwell migration inhibition on HUVECs; type: cell-based, human; conditions: for Inhibition rate (%): HUVEC migration vs blank control; for Cell migration number (Mean ± SD): HUVECs, transwell, 24 h
[2] = test system: splenic lymphocytes; test: Proliferation of splenic lymphocytes in mice (ConA, MTT); type: cell-based; conditions: ConA-stimulated mouse splenic lymphocytes, 48 h
In short: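 Mouse splenocytes (5×10^6 cells/mL, RPMI 1640 with 10% calf serum, red cells lysed) stimulated with ConA plus varying polypeptide concentrations, with blank, ConA-only and Dex groups, 48 h at 37° C. MTT added for 4 h, formazan dissolved in DMSO, OD read at 570 nm; five replicates.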

[3] = test system: IL-1β production by mouse peritoneal macrophages; test: IL-1β production by mouse peritoneal macrophages (ELISA); type: cell-based; conditions: for Inhibition rate: IL-1β production, vs model group; for IL-1β: mouse peritoneal macrophages, 48 h, ELISA
In short: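 Starch-elicited (6%, i.p.) mouse peritoneal macrophages, 2×10^6 cells/mL in RPMI 1640, adhered 3 h; non-adherent cells washed off. Polypeptides added at low, medium and high concentrations, Dex as positive control; cultured 48 h, supernatant IL-1β measured.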

[4] = test system: collagen-induced arthritis; test: Mouse collagen-induced arthritis (CIA) animal model; type: in vivo; conditions: DBA/1 mice CIA model, dose 4.0 mg/kg, subcutaneous from day 30, n=10; for Clinical score: highest score 16
[5] = test system: adjuvant arthritis; test: Rat adjuvant arthritis (AA) animal model; type: in vivo, SD rats; conditions: 4.0 mg/kg; for Clinical score: intravenous in the tail once every five days from day 10, four paws scored 0-4, max 16, mean±SD; for Joint swelling degree / Left and right paw swelling degree: intravenous in the tail once every five days from day 10, mean±SD
[6] = test system: corneal neovascularization; test: Corneal neovascularization induced by alkali burn in BALB/c mice; type: in vivo; design: Inhibition rate (corneal neovascularization): concentration or dose not given beside the values; conditions: day 14 after alkali burn, vitreous injection once a day for 1 week
[7] = test system: retinal vascular endothelial nuclei; test: Neovascularization in a rat model of premature retinopathy; type: in vivo, rats; conditions: dose 0.05 μM in the vitreous chamber from day 7 of modeling for one week; counted on day 14; oxygen-induced neonatal rats
Procedure: Using a fluctuating oxygen-induced animal model, newborn rats born naturally on the same day (within 12 h) were randomly divide into three groups: an oxygen model group, an oxygen treatment group and a normal control group. The oxygen model was further divided into three sub-group model groups, and the sub-group model groups and the treatment group were all placed in a semi-closed oxygen chamber made of organic glass; medical oxygen was introduced into the chamber, and the concentration was adjusted to 80%±2% by an oxygen meter; nitrogen was introduced into the oxygen chamber after 24 h, and the oxygen concentration was adjusted to 10%±2% rapidly and maintained for 24 h. This was repeated to keep the oxygen concentration in the oxygen chamber alternating between 80% and 10% every 24 h, the oxygen concentration was maintained for 7 d, and then the rats were fed in the air. The oxygen concentration was monitored 8 times a day, and the ambient temperature in the chamber was controlled at 23° C.±2° C. Bedding was replaced, feed was added, and water and mother rats were replaced once. The normal control group was placed in the animal room feeding environment. […] The oxygen treatment group was divided into three subgroups. On day 7 of modeling, X1-[…], […]-[…] and […]-X90 were injected in the vitreous chamber respectively, and the oxygen model group and the control group were only given normal saline for one week. On day 14, after the rats were anesthetized by diethyl ether and killed, eyeballs were extracted and fixed in 40 g/L paraformaldehyde solution for 24 h. Gradient dehydration by alcohol was performed, and the eyeballs were processed by xylene to be transparent. After waxing, the eyeballs were sectioned continuously to a thickness of 4μm, and the periphery of the optic disc should be avoided as much as possible. The sections were parallel to the sagittal plane from cornea to the optic disc. Ten sections of each eyeball were randomly taken and stained with hematoxylin eosin, the number of vascular endothelial nuclei that broke through the inner limiting membrane of the retina (only the number of vascular endothelial nuclei closely related to the inner limiting membrane were counted) was counted, and statistics of the average number of cells per section per eyeball was performed. Results: In the control group, there were no vascular endothelial nuclei that broke through the inner limiting membrane of the retina and grew into vitreous body, or the vascular endothelial nuclei were occasionally found in only a few sections. In the model group, there were many vascular endothelial nuclei that broke through the inner limiting membrane of the retina, some appeared alone, and some appeared in clusters. At the same time, on some sections, these vascular endothelial nuclei were also found adjacent to deep retinal vessels, confirming that they originated from the retina rather than the vitreous body or other ocular tissues. In the treatment group, only a few vascular endothelial nuclei that broke through the inner limiting membrane of retina could be seen in the sections.

Structure (SMILES)	Inhibition rate (%) ([1]; dose 0.05 μM)	Inhibition rate (%) ([1]; dose 0.1 μM)	Inhibition rate (%) ([1]; dose 0.2 μM)	Cell migration number (Mean ± SD) ([1]; dose 0.05 μM)	Cell migration number (Mean ± SD) ([1]; dose 0.1 μM)	Cell migration number (Mean ± SD) ([1]; dose 0.2 μM)	A570 nm/A630 nm ([2]; polypeptide dose 0.05 μM)	Inhibition rate (%) ([2]; polypeptide dose 0.05 μM)	A570 nm/A630 nm ([2]; polypeptide dose 0.1 μM)	Inhibition rate (%) ([2]; polypeptide dose 0.1 μM)	A570 nm/A630 nm ([2]; polypeptide dose 0.2 μM)	Inhibition rate (%) ([2]; polypeptide dose 0.2 μM)	Inhibition rate ([3]; dose 0.05 μM)	IL-1β ([3]; dose 0.05 μM)	Inhibition rate ([3]; dose 0.1 μM)	IL-1β ([3]; dose 0.1 μM)	Inhibition rate ([3]; dose 0.2 μM)	IL-1β ([3]; dose 0.2 μM)	Joint swelling degree (mm) [4]	Left and right paw swelling degree (mm) [4]	also measured
C[C@H](NC(=O)CNC(=O)[C@H](CCCNC(=N)N)NC(=O)CCCCCCCCCCCc1cccc(N2C(=O)C=CC2=O)c1)C(=O)N[C@@H](CC(=O)O)C(=O)N[C@@H](CCCNC(=N)N)C(=O)N[C@@H](C)C(=O)NCC(=O)NCC(=O)NCC(=O)NCC(=O)N[C@@H](CCCNC(=N)N)C(=O)NCC(=O)N[C@@H](CC(=O)O)C(=O)O [X35] (X58-RGADRAGGGGRGD-OH)	42.61%	50.57%	56.96%	615.18 ± 57.71	529.83 ± 68.02	461.34 ± 66.82	0.6122 ± 0.1219	9.36%	0.5261 ± 0.0617	22.11%	0.4415 ± 0.0616	34.63%	23.62%	718.81 ± 11.53 pg/mL	30.79%	651.42 ± 15.51 pg/mL	34.61%	615.43 ± 17.18 pg/mL	0.76 ± 0.13 mm	0.85 ± 0.14 mm	Clinical score [4]: 8.78 ± 1.23; Clinical score [5]: 5.83 ± 1.07; Joint swelling degree [5]: 0.85 ± 0.13 mm; Left and right paw swelling degree [5]: 3.78 ± 0.56 mm; Inhibition rate (corneal neovascularization) [6]: 44.60%; MVD (corneal microvessel density) [6]: 37.25 ± 4.806; Nuclei count (retinal vascular endothelial nuclei, average per section per eyeball) [7]: 8.544 ± 3.087
C[C@H](NC(=O)CNC(=O)[C@H](CCCNC(=N)N)NC(=O)CCCCCCCCCCCCc1cccc(N2C(=O)C=CC2=O)c1)C(=O)N[C@@H](CC(=O)O)C(=O)N[C@@H](CCCNC(=N)N)C(=O)N[C@@H](C)C(=O)NCC(=O)NCC(=O)NCC(=O)NCC(=O)N[C@@H](CCCNC(=N)N)C(=O)NCC(=O)N[C@@H](CC(=O)O)C(=O)O [X36] (X65-RGADRAGGGGRGD-OH)	52.07%	56.76%	57.92%	513.79 ± 55.46	463.47 ± 50.27	451.01 ± 43.85	0.6051 ± 0.0633	10.41%	0.4566 ± 0.1223	32.40%	0.4401 ± 0.051	34.84%	17.18%	779.49 ± 11.56 pg/mL	34.09%	620.34 ± 15.26 pg/mL	34.16%	619.62 ± 11.89 pg/mL	0.74 ± 0.14 mm	0.77 ± 0.13 mm	Clinical score [4]: 8.86 ± 1.23; Clinical score [5]: 5.71 ± 1.09; Joint swelling degree [5]: 0.81 ± 0.12 mm; Left and right paw swelling degree [5]: 4.00 ± 0.44 mm; Inhibition rate (corneal neovascularization) [6]: 45.52%; MVD (corneal microvessel density) [6]: 36.63 ± 5.284; Nuclei count (retinal vascular endothelial nuclei, average per section per eyeball) [7]: 8.726 ± 3.273
C[C@H](NC(=O)CNC(=O)[C@H](CCCNC(=N)N)NC(=O)CCCCCCc1ccccc1N1C(=O)C=CC1=O)C(=O)N[C@@H](CC(=O)O)C(=O)N[C@@H](CCCNC(=N)N)C(=O)N[C@@H](C)C(=O)NCC(=O)NCC(=O)NCC(=O)NCC(=O)N[C@@H](CCCNC(=N)N)C(=O)NCC(=O)N[C@@H](CC(=O)O)C(=O)O [X18] (X63-RGADRAGGGGRGD-OH)	40.73%	41.02%	44.55%	635.26 ± 59.22	632.13 ± 55.39	594.30 ± 45.38	0.6041 ± 0.0524	10.56%	0.5571 ± 0.0554	17.52%	0.4402 ± 0.0534	34.82%	23.36%	721.31 ± 12.75 pg/mL	23.86%	716.58 ± 16.56 pg/mL	27.40%	683.26 ± 19.63 pg/mL	0.72 ± 0.11 mm	0.79 ± 0.12 mm	Clinical score [4]: 8.91 ± 1.29; Clinical score [5]: 5.67 ± 1.04; Joint swelling degree [5]: 0.83 ± 0.15 mm; Left and right paw swelling degree [5]: 3.81 ± 0.85 mm; Inhibition rate (corneal neovascularization) [6]: 50.18%; MVD (corneal microvessel density) [6]: 33.50 ± 5.649; Nuclei count (retinal vascular endothelial nuclei, average per section per eyeball) [7]: 8.002 ± 3.606
C[C@H](NC(=O)CNC(=O)[C@H](CCCNC(=N)N)NC(=O)CCCCCCCCCCCCc1ccccc1N1C(=O)C=CC1=O)C(=O)N[C@@H](CC(=O)O)C(=O)N[C@@H](CCCNC(=N)N)C(=O)N[C@@H](C)C(=O)NCC(=O)NCC(=O)NCC(=O)NCC(=O)N[C@@H](CCCNC(=N)N)C(=O)NCC(=O)N[C@@H](CC(=O)O)C(=O)O [X24] (X84-RGADRAGGGGRGD-OH)	49.57%	49.95%	51.01%	540.49 ± 60.98	536.51 ± 42.41	525.06 ± 53.33	0.5823 ± 0.0474	14.12%	0.5615 ± 0.1155	16.86%	0.5142 ± 0.0636	23.87%	29.88%	659.97 ± 17.07 pg/mL	31.39%	645.67 ± 11.87 pg/mL	41.69%	548.82 ± 19.58 pg/mL	0.82 ± 0.11 mm	0.71 ± 0.12 mm	Clinical score [4]: 8.94 ± 1.41; Clinical score [5]: 5.73 ± 1.15; Joint swelling degree [5]: 0.76 ± 0.15 mm; Left and right paw swelling degree [5]: 3.94 ± 0.70 mm; Inhibition rate (corneal neovascularization) [6]: 46.24%; MVD (corneal microvessel density) [6]: 36.15 ± 4.199; Nuclei count (retinal vascular endothelial nuclei, average per section per eyeball) [7]: 7.699 ± 3.108
